How the values were obtained:
[1] = target: T1, H₁-receptor (Cavia porcellus, UniProt P31389); assay: Shift of the histamine dose-response curve in ileum tissue; type: cell-based, guinea pigs; settings: ileum tissues
T1 construct: Fresh segments of terminal ileum immediately proximal to Peyer's patch, obtained from male Buckshire guinea pigs; from tissue; host or cells: guinea pig terminal ileum segments

[2] = system: histamine-induced death in guinea pigs; assay: Protection against histamine-induced death after oral pretreatment; type: in vivo
[3] = target: T1, H₁-receptor; assay: Reduction of histamine-induced contraction of isolated guinea pig ileum; type: cell-based, guinea pigs; settings: test drug 1 × 10⁻⁷M in the presence of histamine 1 × 10⁻⁶M; guinea pig terminal ileum; quadruplicate sets of tissues; read-out: percent reduction in tissue contraction
Method: The compounds of this invention were established to be histamine H₁-antagonists by subjecting them to the following standard test procedures for H₁-blocking activity:
Fresh segments of terminal ileum immediately proximal to Peyer's patch, obtained from male Buckshire guinea pigs, were suspended in 37°C Tyrode's solution in a tissue bath and aerated. The tissue segments were placed under one gram tension and allowed to equilibrate for one hour. Histamine was added to each tissue bath to a final concentration of 1 × 10⁻⁶M. The contraction response after it equilibrated was noted as grams tension. Test drug was added, in the presence of histamine, to each bath to a final concentration of 1 × 10⁻⁷M. The change in grams tension was noted and the percent reduction in grams tension calculated.

T1 sequence (P31389 whole entry): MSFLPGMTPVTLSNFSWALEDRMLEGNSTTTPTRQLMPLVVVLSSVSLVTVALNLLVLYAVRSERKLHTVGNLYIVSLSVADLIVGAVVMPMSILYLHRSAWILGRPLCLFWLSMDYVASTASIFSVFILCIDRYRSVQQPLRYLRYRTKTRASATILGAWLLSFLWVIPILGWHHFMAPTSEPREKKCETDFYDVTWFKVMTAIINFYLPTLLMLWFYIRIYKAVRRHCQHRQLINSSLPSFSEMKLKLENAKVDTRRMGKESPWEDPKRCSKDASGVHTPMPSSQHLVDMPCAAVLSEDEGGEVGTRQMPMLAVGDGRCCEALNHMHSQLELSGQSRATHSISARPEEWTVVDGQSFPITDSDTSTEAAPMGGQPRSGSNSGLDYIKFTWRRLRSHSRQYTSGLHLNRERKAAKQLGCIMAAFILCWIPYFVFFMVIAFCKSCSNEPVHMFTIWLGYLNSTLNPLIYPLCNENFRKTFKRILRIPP

Which results are given for `Cn1c(=O)c2c(ncn2CCCN2CCC(OC(c3ccccc3)c3ccccc3)CC2)n(C)c1=O` [Example 1, 7-[3-(4-Diphenylmethoxy)-1-piperidinyl]propyl-3,7-dihydro-1,3-dimethyl-1H-purine-2,6-dione]?
Kb ([1]; calculated via formula from the dose-response curve shift at 10⁻⁸M compound, read-out: histamine H₁antagonist potency): 0.29 nM; shift of histamine dose-response curve ([1]; compound at 10⁻⁸M): marked, parallel shift of the curve to the right; Percent Survival ([2]; 0.5 mg/kg p.o., 18 Hours pretreatment, Trial5): 70%; Percent Survival ([2]; 0.5 mg/kg p.o., 18 Hours pretreatment, Trial 6): 40%; Percent Survival ([2]; 1.0 mg/kg p.o., 1 Hour pretreatment, Trial 1): 40%; Percent Survival ([2]; 1.0 mg/kg p.o., 1 Hour pretreatment, Trial 2): 10%; Percent Survival ([2]; 1.0 mg/kg p.o., 1 Hour pretreatment, Trial 3): 40%; Percent Survival ([2]; 1.0 mg/kg p.o., 2 Hours pretreatment, Trial 3): 70%; Percent Survival ([2]; 1.0 mg/kg p.o., 2 Hours pretreatment, Trial 4): 70%; Percent Survival ([2]; 1.0 mg/kg p.o., 18 Hours pretreatment, Trial5): 80%; Percent Survival ([2]; 5.0 mg/kg p.o., 1 Hour pretreatment, Trial 1): 80%; Percent Survival ([2]; 10.0 mg/kg p.o., 2 Hours pretreatment, Trial 4): 60%; inhibition at 0.1 µM [3]: 92%

For `Cn1c(=O)c2c(ncn2CCN2CCC(OC(c3ccc(F)cc3)c3ccc(F)cc3)CC2)n(C)c1=O` [Example 4, 7-[2-[4-Bis(4-fluorophenyl)methoxy]-1-piperidinyl]ethyl-3,7-dihydro-1,3-dimethyl-1H-purine-2,6-dione], which inhibition at 0.1 µM [3] is on record?
The inhibition at 0.1 µM was 62%.

— patent EP0271192A2, “Purine histamine H1 antagonists, their preparation and pharmaceutical compositions containing them” (AMERICAN HOME PRODUCTS CORPORATION, priority 1986, dated 1988)
